Results from ChEMBL document CHEMBL1201862, “PubChem BioAssay data set” (2004).
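Where inhibition never reached the appropriate level, the endpoint shown equals the highest concentration tested. Otherwise, values were interpolated linearly from a five-concentration, 48-hour dose response in 96-well plates. GI50 marks 50% less growth.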 Activity calls are given as the source filed them. No stated cut-off is given here; in the data, active = GI50 up to about 1.1 µM and inactive = higher.

Tests used:
Test in all cases: DTP human tumour cell line panel, 48 h
A549 = system: A549
CAKI-1 = system: CAKI-1
COLO 205 = system: COLO 205
DMS-114 = system: DMS-114
HCT-116 = system: HCT-116
K562 = system: K562
LOX IMVI = system: LOX IMVI
Malme-3M = system: Malme-3M
OVCAR-3 = system: OVCAR-3
SF-268 = system: SF-268
SF-539 = system: SF-539
SK-MEL-28 = system: SK-MEL-28
SK-MEL-5 = system: SK-MEL-5
SK-OV-3 = system: SK-OV-3
SN12C = system: SN12C
SNB-19 = system: SNB-19

Measured: GI50

COC(=O)C(=O)C(C(=O)C=C(C)C)C(=O)C(=O)Nc1ccc(Cl)cc1C (stereo unspecified)
inactive: A549 > 100 µM | CAKI-1 > 100 µM | COLO 205 > 100 µM | DMS-114 92 µM | HCT-116 > 100 µM | K562 71.8 µM | LOX IMVI > 100 µM | Malme-3M > 100 µM | OVCAR-3 > 100 µM | SF-268 > 100 µM | SF-539 > 100 µM | SK-MEL-28 > 100 µM | SK-MEL-5 > 100 µM | SK-OV-3 > 100 µM | SN12C > 100 µM | SNB-19 > 100 µM

O=C(CCN1CCCCC1CCO)Nc1ccc2c(c1)C(=O)c1ccc(NC(=O)CCN3CCCCC3CCO)cc1C2=O (stereo unspecified)
inactive: A549 16.7 µM | CAKI-1 23.7 µM | COLO 205 2.11 µM | DMS-114 4.08 µM | HCT-116 4.11 µM | K562 3.85 µM | LOX IMVI 2.99 µM | Malme-3M 2.64 µM | OVCAR-3 2.37 µM | SF-268 4.88 µM | SF-539 2.1 µM | SK-MEL-28 10.1 µM | SK-MEL-5 9.4 µM | SK-OV-3 5.12 µM | SN12C 3.67 µM | SNB-19 6.07 µM

CC1(C)C2CCC13C(=O)C1OC3(C2)C2C(=O)N(c3ccccc3)C(=O)C12 (stereo unspecified)
inactive: A549 > 100 µM | CAKI-1 > 100 µM | COLO 205 > 100 µM | DMS-114 > 100 µM | HCT-116 > 100 µM | K562 > 100 µM | LOX IMVI > 100 µM | Malme-3M > 100 µM | OVCAR-3 > 100 µM | SF-268 > 100 µM | SF-539 > 100 µM | SK-MEL-5 > 100 µM | SK-OV-3 > 100 µM | SN12C > 100 µM | SNB-19 > 100 µM

CC(C)(C)c1ccccc1NS(=O)(=O)c1ccccc1
inactive: A549 59.8 µM | CAKI-1 64 µM | DMS-114 49.9 µM | HCT-116 48 µM | K562 44.9 µM | Malme-3M > 100 µM | OVCAR-3 71.4 µM | SF-539 > 100 µM | SK-MEL-28 > 100 µM | SK-MEL-5 42.4 µM | SK-OV-3 > 100 µM | SN12C 62.4 µM

Cn1ncnc1CCc1ccccc1
inactive: A549 > 100 µM | CAKI-1 > 100 µM | COLO 205 > 100 µM | DMS-114 > 100 µM | HCT-116 > 100 µM | K562 > 100 µM | LOX IMVI > 100 µM | Malme-3M > 100 µM | OVCAR-3 > 100 µM | SF-268 > 100 µM | SF-539 > 100 µM | SK-MEL-28 > 100 µM | SK-MEL-5 > 100 µM | SK-OV-3 > 100 µM | SN12C > 100 µM

COc1cc(Nc2cnc3ccc(N)cc3n2)cc(OC)c1OC
inactive: A549 > 100 µM | CAKI-1 59.2 µM | COLO 205 42.5 µM | DMS-114 79.3 µM | HCT-116 > 94.6 µM | K562 18.5 µM | LOX IMVI 36.6 µM | Malme-3M > 65.2 µM | OVCAR-3 41.3 µM | SF-268 > 100 µM | SK-MEL-28 78.2 µM | SK-MEL-5 16.9 µM | SK-OV-3 > 86.9 µM | SN12C > 100 µM | SNB-19 > 100 µM

N/N=C1\c2ccccc2C2/C(=N\N)c3ccccc3C12 (stereo unspecified)
inactive: A549 > 100 µM | CAKI-1 > 100 µM | COLO 205 > 100 µM | DMS-114 > 100 µM | K562 > 100 µM | LOX IMVI > 100 µM | Malme-3M > 100 µM | OVCAR-3 > 100 µM | SF-268 > 100 µM | SF-539 > 100 µM | SK-MEL-28 > 100 µM | SK-MEL-5 > 100 µM | SK-OV-3 > 100 µM | SN12C > 100 µM | SNB-19 > 100 µM

COc1ccc(O)cc1C=O
inactive: A549 > 100 µM | COLO 205 > 100 µM | DMS-114 32.8 µM | HCT-116 50 µM | K562 33.9 µM | LOX IMVI 54 µM | Malme-3M 46.3 µM | OVCAR-3 > 100 µM | SF-268 > 100 µM | SF-539 > 100 µM | SK-MEL-28 65.3 µM | SK-MEL-5 61 µM | SK-OV-3 > 100 µM | SN12C > 100 µM | SNB-19 > 100 µM

N#CCCN(CCC#N)c1ccc(/C=C2\N=C(COc3ccc(Cl)cc3Cl)OC2=O)cc1
inactive: A549 > 100 µM | CAKI-1 > 100 µM | COLO 205 > 100 µM | DMS-114 > 100 µM | HCT-116 > 100 µM | K562 > 100 µM | LOX IMVI > 100 µM | Malme-3M > 100 µM | OVCAR-3 > 100 µM | SF-268 > 100 µM | SF-539 > 100 µM | SK-MEL-28 > 100 µM | SK-MEL-5 > 100 µM | SK-OV-3 > 100 µM | SN12C > 100 µM | SNB-19 > 100 µM

Cc1c(-c2nnc(-c3ccc(Cl)cc3)o2)c(=O)n(-c2ccccc2)n1C
inactive: A549 > 100 µM | COLO 205 > 100 µM | DMS-114 > 100 µM | HCT-116 > 100 µM | K562 > 100 µM | LOX IMVI > 100 µM | Malme-3M > 100 µM | OVCAR-3 > 100 µM | SF-268 > 100 µM | SF-539 3.33 µM | SK-MEL-28 > 100 µM | SK-OV-3 > 100 µM | SN12C > 100 µM | SNB-19 > 100 µM

CN(C)c1ccc(/C=C(\C#N)C(=O)c2ccccc2)cc1Br
inactive: A549 > 100 µM | CAKI-1 > 100 µM | COLO 205 > 100 µM | DMS-114 > 100 µM | HCT-116 > 100 µM | K562 59.8 µM | LOX IMVI 25.5 µM | Malme-3M > 100 µM | OVCAR-3 > 100 µM | SF-268 > 100 µM | SF-539 > 100 µM | SK-MEL-28 46.5 µM | SK-MEL-5 96.2 µM | SK-OV-3 > 100 µM | SN12C > 100 µM | SNB-19 > 100 µM

COC(=O)CC[C@]12C[C@]13CC[C@]1(C)C4C(C)C[C@]5(CC(C)C(=O)O5)OC4CC1(C)C3CCC2C(C)(C)O (stereo partly specified)
inactive: A549 > 100 µM | COLO 205 74.8 µM | DMS-114 59.7 µM | HCT-116 85.7 µM | K562 49.9 µM | LOX IMVI 32.5 µM | Malme-3M > 100 µM | OVCAR-3 76 µM | SF-268 81.1 µM | SF-539 50.6 µM | SK-MEL-28 84.9 µM | SK-MEL-5 35.6 µM | SK-OV-3 > 100 µM | SN12C 61.5 µM | SNB-19 51.2 µM

C[C@]12CCC(=O)C[C@H]1CCC(O)[C@@H]2Br (stereo partly specified)
inactive: A549 > 100 µM | CAKI-1 > 100 µM | COLO 205 > 100 µM | DMS-114 > 100 µM | HCT-116 > 100 µM | K562 > 100 µM | LOX IMVI > 100 µM | Malme-3M > 100 µM | OVCAR-3 > 100 µM | SF-268 > 100 µM | SF-539 > 100 µM | SK-MEL-28 > 100 µM | SK-MEL-5 > 100 µM | SK-OV-3 > 100 µM | SN12C > 100 µM | SNB-19 > 100 µM
